Experiments:
MOLM-13 [1] = experiment: cells; set-up: species or system AML cell lines (8); Secondary HTS, 10-point dose-response in triplicate, Cell Titer Glo viability, four-parameter fit EC50; details: Homo sapiens, MOLM-13, 72 h, read-out: MOLM-13
MV4-11 [2] = experiment: cells; set-up: species or system AML cell lines (8); Secondary HTS, 10-point dose-response in triplicate, Cell Titer Glo viability, four-parameter fit EC50; details: Homo sapiens, MV4-11, 72 h, read-out: MV4-11
CHRF288-11 [3] = experiment: cells; set-up: species or system AML cell lines (8); Secondary HTS, 10-point dose-response in triplicate, Cell Titer Glo viability, four-parameter fit EC50; details: 72 h, read-out: CHRF288-11
CMS [4] = experiment: cells; set-up: species or system AML cell lines (8); Secondary HTS, 10-point dose-response in triplicate, Cell Titer Glo viability, four-parameter fit EC50; details: 72 h, read-out: CMS
M07e [5] = experiment: cells; set-up: species or system AML cell lines (8); Secondary HTS, 10-point dose-response in triplicate, Cell Titer Glo viability, four-parameter fit EC50; details: M-07e, 72 h, read-out: M07e
ML-2 = experiment: cells; set-up: species or system AML cell lines (8); Secondary HTS, 10-point dose-response in triplicate, Cell Titer Glo viability, four-parameter fit EC50; details: Homo sapiens, ML-2, 72 h, read-out: ML-2
U937 [6] = experiment: cells; set-up: species or system AML cell lines (8); Secondary HTS, 10-point dose-response in triplicate, Cell Titer Glo viability, four-parameter fit EC50; details: Homo sapiens, U-937, 72 h, read-out: U937
CMK [7] = experiment: Secondary dose-response HTS, Cell Titer Glo; type: cell-based, human; details: Homo sapiens; secondary high-throughput screen; CMK; read-out: average effective concentration, CMK
MOLM-13 [8] = experiment: Secondary dose-response HTS, Cell Titer Glo; type: cell-based, human; details: Homo sapiens; secondary high-throughput screen; MOLM-13; read-out: average effective concentration, MOLM-13
MV4-11 [9] = experiment: Secondary dose-response HTS, Cell Titer Glo; type: cell-based, human; details: Homo sapiens; secondary high-throughput screen; MV4-11; read-out: average effective concentration, MV4-11
CHRF288-11 [10] = experiment: Secondary dose-response HTS, Cell Titer Glo; type: cell-based, human; details: Homo sapiens, HTS; secondary high-throughput screen; CHRF288-11; read-out: average effective concentration, CHRF288-11
U937 [11] = experiment: Secondary dose-response HTS, Cell Titer Glo; type: cell-based, human; details: Homo sapiens, U-937; secondary high-throughput screen; U937; read-out: average effective concentration, U937
CMS [12] = experiment: Secondary dose-response HTS, Cell Titer Glo; type: cell-based, human; details: Homo sapiens, HTS; secondary high-throughput screen; CMS; read-out: average effective concentration, CMS
M07e [13] = experiment: Secondary dose-response HTS, Cell Titer Glo; type: cell-based, human; details: Homo sapiens, M-07e; secondary high-throughput screen; M07e; read-out: average effective concentration, M07e
ML2 = experiment: Secondary dose-response HTS, Cell Titer Glo; type: cell-based, human; details: Homo sapiens; secondary high-throughput screen; ML-2; read-out: average effective concentration, ML-2
CMK [14] = experiment: cells; set-up: species or system AML cell lines (8); Secondary HTS, 10-point dose-response in triplicate, Cell Titer Glo viability, four-parameter fit EC50; details: Homo sapiens, CMK, 72 h, read-out: CMK

| Structure (SMILES) | EC50 (MV4-11 [2]) | EC50 (CHRF288-11 [3]) | EC50 (CMS [4]) | EC50 (M07e [5]) | EC50 (ML-2) | EC50 (U937 [6]) | also measured |
| --- | --- | --- | --- | --- | --- | --- | --- |
| N[C@@H]1C[C@H]1c1ccccc1 (racemic) [SJ000286124, TRANYLCYPROMINE] | > 10 µM | > 10 µM | > 10 µM | > 10 µM | > 10 µM | > 10 µM | EC50 (MOLM-13 [1]): > 10 µM |
| CC(=O)O[C@H]1CC[C@@]2(C)C(=CC[C@@H]3[C@@H]2CC[C@]2(C)C(c4cccnc4)=CC[C@@H]32)C1 [ABIRATERONE ACETATE] | > 10 µM | > 10 µM | > 10 µM | > 10 µM | > 10 µM | > 10 µM | EC50 (CMK [7]): 5.3 µM; EC50 (MOLM-13 [1]): > 10 µM |
| COc1cc(CCc2cc(NC(=O)c3ccc(N4C[C@@H](C)N[C@@H](C)C4)cc3)n[nH]2)cc(OC)c1 [AZD4547] | – | > 10 µM | > 10 µM | > 10 µM | > 10 µM | > 10 µM | – |
| COc1cc2nccc(Oc3ccc(NC(=O)C4(C(=O)Nc5ccc(F)cc5)CC4)cc3)c2cc1OC [CABOZANTINIB] | – | > 10 µM | > 10 µM | > 10 µM | > 10 µM | > 10 µM | EC50 (MOLM-13 [8]): 0.05 µM; EC50 (MV4-11 [9]): 0.001 µM; EC50 (CMK [7]): 7.3 µM |
| CC(C)C[C@H](NC(=O)[C@H](CCc1ccccc1)NC(=O)CN1CCOCC1)C(=O)N[C@@H](Cc1ccccc1)C(=O)N[C@@H](CC(C)C)C(=O)[C@@]1(C)CO1 [Carfilzomib] | – | – | – | – | 0.0029 µM | – | – |
| Nc1nc(Cl)nc2c1ncn2[C@@H]1O[C@H](CO)[C@@H](O)[C@@H]1F [Clofarabine, clofarabine] | – | – | – | – | 0.125 µM | – | – |
| Nc1ncn([C@H]2C[C@H](O)[C@@H](CO)O2)c(=O)n1 [DECITABINE] | 9.6 µM | – | > 10 µM | > 10 µM | > 10 µM | – | EC50 (MOLM-13 [8]): 0.001 µM; EC50 (CHRF288-11 [10]): 7 µM; EC50 (CMK [7]): 4.3 µM; EC50 (U937 [11]): 0.31 µM |
| CC(=O)O[C@@]12CO[C@@H]1C[C@H](O)[C@@]1(C)C(=O)[C@H](O)C3=C(C)[C@@H](OC(=O)[C@H](O)[C@@H](NC(=O)OC(C)(C)C)c4ccccc4)C[C@@](O)([C@@H](OC(=O)c4ccccc4)[C@H]21)C3(C)C [Docetaxel, docetaxel] | – | – | – | – | > 10 µM | – | – |
| CCOc1ccccc1-n1c(C(C)N2CCN(C(=O)COc3ccc(Cl)cc3)CC2)nc2ccccc2c1=O (stereo not drawn) [ERASTIN] | > 10 µM | – | – | – | – | > 10 µM | EC50 (CHRF288-11 [10]): 0.19 µM; EC50 (CMS [12]): 9.5 µM; EC50 (M07e [13]): 7.5 µM; EC50 (ML2): 0.54 µM; EC50 (MOLM-13 [1]): > 10 µM; EC50 (CMK [14]): > 10 µM |
| NC(=O)c1ccc(I)c([N+](=O)[O-])c1 [INIPARIB] | > 10 µM | > 10 µM | > 10 µM | > 10 µM | > 10 µM | > 10 µM | EC50 (MOLM-13 [8]): > 10 µM |
| C=CC(=O)N1CCC[C@@H](n2nc(-c3ccc(Oc4ccccc4)cc3)c3c(N)ncnc32)C1 [Ibrutinib] | – | > 10 µM | – | > 10 µM | > 10 µM | – | – |

— paper PMC6522510 (Nature Communications, 2019)
